In patent US8569264B2, “Antibacterial 4,5-substituted aminoglycoside analogs having multiple substituents” (ISIS Pharmaceuticals, Inc., priority 2005, dated 2013):
Where two headings read alike, the source gives them in different places.

Tests used:
[1] = test system: Staphylococcus aureus (Smith Strain ATCC 13709); experiment: Staphylococcus aureus mouse protection assay; assay type: in vivo, mice; settings: Staph Conc. 10^6, 10% Mucin, the 13th table
Method: Two of the novel aminoglycoside compounds of the invention were examined for their anitbacterial activity against staphylococcus aureus. Mice were fed with autoclaved commercial food pellets and sterile water ad libitum. Animals were inoculated intraperitoneally with 0.5 mL/mouse of the indicated concentration of S. aureus (ATCC 13709) containing 10% mucin. There were 10 mice in each treatment group and compounds were administered subcutaneously one and 3 hour after infection. Compounds 15a (R4═R5═CH3) and 15j (R4═H, R5═(CH2)2C6H5)) were used at 75 mg/kg, 37.5 mg/kg, 18.8 mg/kg, 9.4 mg/kg, 4.7 mg/kg, 2.3 mg/kg, 1.17 mg/kg and 0.5 mg/kg. Amakacin, paromomycin and neomycin were used as the positive controls at concentrations of 2 mg/kg, 1 mg/kg and 0.5 mg/kg.
Test compound was administered as an aqueous buffer solution (phosphate buffered saline (PBS), pH=7.4).

[2] = molecular target: 18S ribosomal subunit RNA target; experiment: Mass spectrometry based binding assay (FTICR), 18S
Method: (§1) In a typical experiment, 10 μL of an aqueous solution containing 100 mM ammonium acetate buffer, 2.5 or 5 μM of each RNA, and 33% isopropyl alcohol (to aid ion desolvation) was prepared with different concentrations of each ligand or ligand mixture Samples were introduced into the electrospray ionization source (negative ionization mode) at 1 μL/min and ions were stored for 1 sec in an RF-only hexapole following desolvation. The abundances were integrated from the respective ions for free RNA and the ligand-RNA complex. The primary (1:1 RNA:ligand) and secondary (1:2 complex, if observed). […] The peak ratios were measured at each concentration, then a plot of complex/free RNA versus concentration of ligand added was fitted to a second (or higher) order binding polynomial to determine the KD.

[3] = molecular target: 16S ribosomal subunit RNA target; experiment: Mass spectrometry based binding assay (FTICR), 16S
Method: as §1, with “[…],” for “2.5 or 5 μM of each RNA,”

[4] = test system: E. coli S30 bacterial extract (pBestLuc firefly luciferase reporter); experiment: Coupled bacterial transcription/translation assay; assay type: biochemical; settings: read-out: Trans/Trans IC50
Method: The DNA template, pBestLuc™ (Promega), is a plasmid containing a reporter gene for firefly luciferase fused to a strong tac promoter and ribosome binding site. Messenger RNA from 1 μg pBestLuc is transcribed and translated in E. coli S30 bacterial extract in the presence or absence of test compound. Compounds are tested in a black 96 well microtiter plate with an assay volume of 35 μL. […] The transcription/translation reaction is incubated for 35 minutes at 37° C. followed by detection of functional luciferase with the addition of 30 μL LucLite™ (Packard). Light output is quantitated on a Packard TopCount.

E. Coli = experiment: MIC, E. Coli; assay type: cell-based
Method: (§2) The MIC assays are carried out in 150 μL volume in duplicate in 96-well clear flat-bottom plates. The bacterial suspension from an overnight culture growth in appropriate medium is added to a solution of test compound in 4% DMSO in water. Final bacterial inoculum is approximately 10^5-10^6 CFU/well. […] Both ampicillin and tetracycline are used as antibiotic-positive controls in each screening assay for S. pyogenes, E. coli imp-, E. coli, S. aureus, E. faecalis, K. pneumoniae and P. vulgaris. Ciprofloxacin is used as an antibiotic positive control in each screening assay for P. aeruginosa.

S. Aureus = experiment: MIC, S. Aureus; assay type: cell-based
Method: as §2

[5] = FTICR mass spectrometry, Example 105
[6] = FTICR mass spectrometry, run at 100 nM RNA, Example 105

Row | Structure (SMILES) | IC50 ([4]; Example 106) [nM] | Kd [2, 5] [nM] | Kd [3, 6] [nM] | IC50 ([4]; Example 105) [nM] | MIC E. Coli. (E. Coli; Example 105) | MIC S. Aureus (S. Aureus; Example 105) | further results
1 | NCC[C@H](O)C(=O)N[C@@H]1C[C@H](N)[C@@H](O[C@H]2O[C@H](CN)[C@@H](O)[C@H](O)[C@H]2O)[C@H](O)[C@H]1O[C@H]1O[C@H](CO)[C@@H](O)[C@H](N)[C@H]1O [Amikacin, reference compound] |  |  |  |  |  |  | # Dead mice/Total mice in group ([1]; 0.5 mg/kg subcutaneously): 8/10; # Dead mice/Total mice in group ([1]; 1 mg/kg subcutaneously): 10/10; # Dead mice/Total mice in group ([1]; 2 mg/kg subcutaneously): 8/10
2 | NCC1OC(OC2C(CO)OC(OC3C(O)C(N)CC(N)C3OC3OC(CO)C(O)C(O)C3N)C2OCCNCCc2ccc(-c3ccccc3)cc2)C(N)C(O)C1O (stereo not drawn) [Compound 9aa] | 1500 |  |  |  |  |  | Kd ([2]; Example 106): 3500 nM; Kd ([3]; Example 106): 900 nM; MIC E. Coli. (E. Coli; Example 106): 20 to 40 µM; MIC S. Aureus (S. Aureus; Example 106): 5 to 10 µM
3 | NCC1OC(OC2C(CO)OC(OC3C(O)C(N)CC(N)C3OC3OC(CO)C(O)C(O)C3N)C2OCCNCCc2ccc3ccccc3c2)C(N)C(O)C1O (stereo not drawn) [Compound 9ak] |  | 3500 | 700 | 300 | 10 to 20 µM | 1-3. uM | 
4 | CNCC1OC(OC2C(N)CC(N)C(O)C2OC2OC(CO)C(OC3OC(CN)C(O)C(O)C3N)C2O)C(N)C(O)C1O (stereo not drawn) [Compound 15e] |  |  |  |  |  |  | Kd ([2]; Example 108): 1200 nM; Kd ([3]; Example 108): 400 nM; IC50 ([4]; Example 108): 200 nM; MIC E. Coli. (E. Coli; Example 108): 2 to 3 µM; MIC S. Aureus (S. Aureus; Example 108): 2 to 3 µM
5 | NCC1OC(OC2C(CO)OC(OC3C(O)C(N)CC(N)C3OC3OC(CO)C(O)C(O)C3N)C2OCCN(CCc2ccccc2)C(=O)c2ccccc2)C(N)C(O)C1O (stereo not drawn) [Compound 10] | 400 |  |  |  |  |  | Kd ([2]; Example 106): 2500 nM; Kd ([3]; Example 106): 3900 nM; MIC E. Coli. (E. Coli; Example 106): 10 to 20 µM; MIC S. Aureus (S. Aureus; Example 106): 3 to 5 µM
6 | COc1cc(CCNCCOC2C(OC3C(O)C(N)CC(N)C3OC3OC(CO)C(O)C(O)C3N)OC(CO)C2OC2OC(CN)C(O)C(O)C2N)cc(OC)c1 (stereo not drawn) [Compound 9y] | 200 |  |  |  |  |  | MIC E. Coli. (E. Coli; Example 106): 10 to 20 µM; MIC S. Aureus (S. Aureus; Example 106): 5 to 10 µM
7 | NCC1OC(OC2C(CO)OC(OC3C(O)C(N)CC(N)C3OC3OC(CO)C(O)C(O)C3N)C2OCCNCCc2cccnc2)C(N)C(O)C1O (stereo not drawn) [Compound 9o] |  | 1000 | 200 | 200 | 6 to 12 µM | 0.6-1^ uM | 
8 | NC[C@@H]1O[C@H](O[C@H]2[C@@H](O)[C@H](O[C@@H]3[C@@H](O)[C@H](N)C[C@H](N)[C@H]3O[C@H]3O[C@H](CN)[C@@H](O)[C@H](O)[C@H]3N)O[C@@H]2CO)[C@H](N)[C@@H](O)[C@@H]1O [Neomycin B, reference compound] | 200 |  |  |  |  |  | Kd ([2]; Example 106): 300 nM; Kd ([3]; Example 106): 40 nM
9 | NCC1OC(OC2C(CO)OC(OC3C(O)C(N)CC(N)C3OC3OC(CO)C(O)C(O)C3N)C2OCCNC2CCCNC2)C(N)C(O)C1O (stereo not drawn) [Compound 9j] |  | 5000 | 100 | 100 | 1.5-3^ uM | 3 to 6 µM | 
10 | NCC1OC(OC2C(CO)OC(OC3C(O)C(N)CC(N)C3OC3OC(CO)C(O)C(O)C3N)C2OCCNCC2CCCNC2)C(N)C(O)C1O (stereo not drawn) [Compound 9k] |  | 2600 | 300 | 40 | 1.5-3^ uM | 3 to 6 µM | 
11 | NC[C@@H]1O[C@H](O[C@H]2[C@@H](OCCO)[C@H](O[C@@H]3[C@@H](O)[C@H](N)C[C@H](N)[C@H]3O[C@H]3O[C@H](CO)[C@@H](O)[C@H](O)[C@H]3N)O[C@@H]2CO)[C@H](N)[C@@H](O)[C@@H]1O [Compound 12a] |  | 7300 | 900 | 100 | 12 to 25 µM | 6 to 12 µM | 
12 | NCC1OC(OC2C(CO)OC(OC3C(O)C(N)CC(N)C3OC3OC(CO)C(O)C(O)C3N)C2OCCNCCCCc2ccccc2)C(N)C(O)C1O (stereo not drawn) [Compound 9z] |  | 6400 | 700 | 100 | 3 to 5 µM | 0.6 to 1.2 µM | 
